We go through three molecules from patent publication US20260356860A1, “2-SUBSTITUTED 3,4A,5,7,8,8A-HEXAHYDRO-4H-THIOPYRANO[4,3-DJPYRIMIDIN-4-ONES FOR WOUND TREATMENT” (priority 2022, published 2026).

For this experiment, the system named is HEK293 SuperTOPFlash reporter cells, Wnt promoter. In words: HEK CELL Wnt Assay (luciferase reporter). It is filed as cell-based. Conditions: serial dilutions, with or without 50 ng/mL Wnt3a; 18 h. How it is done: In order to determine the effect of the compounds of Formula (I) on Wnt inhibition, an in vitro assay using HEK293 SuperTOPFlash reporter cells, with the Wnt promoter driving a luciferase reporter gene, were utilized. 40,000 HEK293 SuperTOPFlash reporter cells were seeded, per well, in a 48 well plate for 24 hours, prior to administration of serial dilutions of the compound of Formula (I) to individual wells. Serial dilutions ranging from […] to 1 nM of the compound of Formula (I) were added with or without 50 ng/mL Wnt3a (Time Biosciences) and allowed to incubate with the reporter cells for 18 hours. Reporter cells with no treatment were used as negative control.
The molecule `O=c1[nH]c(/C=C/c2ccc(C(F)(F)F)c(B(O)O)c2)nc2c1CSCC2` [Compound 5, (E)-(5-(2-(4-oxo-3,5,7,8-tetrahydro-4H-thiopyrano[4,3-d]pyrimidin-2-yl)vinyl)-2-(trifluoromethyl)phenyl)boronic acid] had an IC50 of 5000 nM. This lies in the single-digit micromolar range.

With `[2H]C1([2H])CSCc2c1nc(-c1ccc(C(F)(F)F)cc1)[nH]c2=O` [Compound 13, 2-(4-(trifluoromethyl)phenyl)-3,5,7,8-tetrahydro-4H-thiopyrano[4,3-d]pyrimidin-4-one-8,8-d2], 4 nM corresponded to half-maximal inhibition (IC50).

Turning to `N#Cc1ccc(-c2nc3c(c(=O)[nH]2)CSCC3)cc1` [Compound 43, 4-(4-oxo-3,5,7,8-tetrahydro-4H-thiopyrano[4,3-d]pyrimidin-2-yl)benzonitrile], half-maximal inhibition (IC50) required 1000 nM. This IC50 is about 250-fold higher than that of the molecule before.
